Measured values from ChEMBL document CHEMBL1201862, “PubChem BioAssay data set” (2004).
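In this assay, cells in 96-well plates receive the compound at five concentrations for 48 hours. Endpoints are linearly interpolated between the surrounding concentrations. At the GI50, growth is halved.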 The source made the active and inactive calls. Rule as the data show it: active = GI50 up to about 1.1 µM and inactive = higher.

Assays:
Experiment in all cases: NCI tumour cell line growth inhibition, 48 h
TK-10 = system: TK-10
RXF 393 = system: RXF 393
SR = system: SR
K562 = system: K562
Malme-3M = system: Malme-3M
Hs-578T = system: Hs-578T
SK-MEL-2 = system: SK-MEL-2
UACC-257 = system: UACC-257
SN12C = system: SN12C
SW-620 = system: SW-620
MDA-MB-435 = system: MDA-MB-435
HT-29 = system: HT-29
OVCAR-5 = system: OVCAR-5
HCT-116 = system: HCT-116
UO-31 = system: UO-31
HCT-15 = system: HCT-15
PC-3 = system: PC-3
SK-MEL-28 = system: SK-MEL-28
HCC 2998 = system: HCC 2998
SK-MEL-5 = system: SK-MEL-5

Compound: Cc1ccc(-c2n[nH]c(=O)n2/N=C\c2ccccc2)cc1
- GI50 (TK-10): > 59.2 µM (inactive)
- GI50 (RXF 393): 24.7 µM (inactive)
- GI50 (SR): > 72.6 µM (inactive)
- GI50 (K562): > 76.2 µM (inactive)
- GI50 (Malme-3M): > 91.2 µM (inactive)
- GI50 (Hs-578T): 23.7 µM (inactive)
- GI50 (SK-MEL-2): 33.8 µM (inactive)
- GI50 (UACC-257): > 100 µM (inactive)
- GI50 (SN12C): 34.5 µM (inactive)
- GI50 (SW-620): > 100 µM (inactive)
- GI50 (MDA-MB-435): > 100 µM (inactive)
- GI50 (HT-29): > 91 µM (inactive)
- GI50 (OVCAR-5): > 100 µM (inactive)
- GI50 (HCT-116): 37.5 µM (inactive)
- GI50 (UO-31): > 68.7 µM (inactive)
- GI50 (HCT-15): 72.6 µM
- GI50 (PC-3): > 63.2 µM (inactive)
- GI50 (SK-MEL-28): > 72.8 µM (inactive)
- GI50 (HCC 2998): > 87.3 µM (inactive)
- GI50 (SK-MEL-5): 75.2 µM (inactive)

Compound: CC1=C[C@@H]2[C@@H](CC(CO)=C[C@H]3[C@@H]4C(C)(C)[C@]4(OCC(C)C)[C@H](OCC(C)C)[C@@H](C)[C@]23O)C1=O
- GI50 (TK-10): 1.82 µM (inactive)
- GI50 (RXF 393): 1.54 µM (inactive)
- GI50 (SR): 1.14 µM (inactive)
- GI50 (K562): 0.137 µM (active)
- GI50 (Malme-3M): 0.766 µM (active)
- GI50 (Hs-578T): 0.9 µM (active)
- GI50 (SK-MEL-2): 2.1 µM (inactive)
- GI50 (UACC-257): 1.62 µM (inactive)
- GI50 (SN12C): 1.73 µM (inactive)
- GI50 (SW-620): 1.19 µM (inactive)
- GI50 (MDA-MB-435): 0.426 µM (active)
- GI50 (HT-29): 1.21 µM (inactive)
- GI50 (OVCAR-5): 2.23 µM (inactive)
- GI50 (HCT-116): 2.04 µM (inactive)
- GI50 (UO-31): 2.22 µM (inactive)
- GI50 (HCT-15): 1.42 µM
- GI50 (PC-3): 1.49 µM (inactive)
- GI50 (SK-MEL-28): 1.3 µM (inactive)
- GI50 (HCC 2998): 0.574 µM (active)
- GI50 (SK-MEL-5): 1.11 µM (active)

Compound: ClCCCN1CCN(CCCl)CC1
- GI50 (TK-10): 357 µM (inactive)
- GI50 (RXF 393): 166 µM (inactive)
- GI50 (SR): 7.98 µM (inactive)
- GI50 (K562): 212 µM (inactive)
- GI50 (Malme-3M): 142 µM (inactive)
- GI50 (Hs-578T): 305 µM (inactive)
- GI50 (SK-MEL-2): 238 µM (inactive)
- GI50 (UACC-257): 284 µM (inactive)
- GI50 (SN12C): 34.4 µM (inactive)
- GI50 (SW-620): 252 µM (inactive)
- GI50 (MDA-MB-435): 282 µM (inactive)
- GI50 (HT-29): 242 µM (inactive)
- GI50 (OVCAR-5): 250 µM (inactive)
- GI50 (HCT-116): 195 µM (inactive)
- GI50 (UO-31): 109 µM (inactive)
- GI50 (HCT-15): 189 µM
- GI50 (PC-3): 383 µM (inactive)
- GI50 (SK-MEL-28): 491 µM (inactive)
- GI50 (HCC 2998): 346 µM (inactive)
- GI50 (SK-MEL-5): 239 µM (inactive)

Compound: N#Cc1c(N)nc(Nc2cccc3ccccc23)c(C#N)c1C#N
- GI50 (TK-10): > 10 µM (inactive)
- GI50 (RXF 393): > 10 µM (inactive)
- GI50 (SR): 3 µM (inactive)
- GI50 (K562): 2.58 µM (inactive)
- GI50 (Malme-3M): > 10 µM (inactive)
- GI50 (Hs-578T): 2.43 µM (inactive)
- GI50 (SK-MEL-2): > 10 µM (inactive)
- GI50 (SN12C): 3.42 µM (inactive)
- GI50 (SW-620): 3.48 µM (inactive)
- GI50 (MDA-MB-435): 3.31 µM (inactive)
- GI50 (HT-29): 6.11 µM (inactive)
- GI50 (OVCAR-5): > 10 µM (inactive)
- GI50 (HCT-116): 2.54 µM (inactive)
- GI50 (UO-31): 3.82 µM (inactive)
- GI50 (HCT-15): 4.17 µM
- GI50 (PC-3): 4.27 µM (inactive)
- GI50 (SK-MEL-28): 3.75 µM (inactive)
- GI50 (HCC 2998): 8.43 µM (inactive)
- GI50 (SK-MEL-5): 4.43 µM (inactive)
